Measured values as given in publication PMC5830763, “Discovery of benzothiazolylquinoline conjugates as novel human A3 receptor antagonists: biological evaluations and molecular docking studies” (Royal Society Open Science, 2018).
Several values for one entry are separate records, joined by “and”; a condition that tells them apart may be missing. Equal entries are not always repeated.

Assays:
hA3AR = target: T1, hA3AR (Homo sapiens, UniProt P0DMS8); assay: Displacement of specific [3H]HEMADO binding at hA3AR expressed in CHO cells; conditions: for Ki: [3H]-HEMADO displacement, CHO cells, n = 3–6, read-out: Ki hA3 (95% CI); for selectivity hA1/A3: ratio of Ki hA1 to Ki hA3; for selectivity hA2A/A3: ratio of Ki hA2A to Ki hA3 as headed
T1 construct: expressed in transfected cells; host or cells: CHO cells (membrane preparation)
T1 sequence (P0DMS8 1-318): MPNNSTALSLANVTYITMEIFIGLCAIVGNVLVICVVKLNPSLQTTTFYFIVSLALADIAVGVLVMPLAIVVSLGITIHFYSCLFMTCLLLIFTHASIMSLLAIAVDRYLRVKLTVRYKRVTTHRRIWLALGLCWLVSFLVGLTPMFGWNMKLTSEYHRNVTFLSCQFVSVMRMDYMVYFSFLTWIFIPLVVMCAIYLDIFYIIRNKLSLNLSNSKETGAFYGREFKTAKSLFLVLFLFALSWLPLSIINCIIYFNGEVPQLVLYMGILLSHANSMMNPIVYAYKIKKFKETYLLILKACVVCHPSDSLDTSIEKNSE

hA2AAR = target: T2, hA2AAR (Homo sapiens, UniProt P29274); assay: Displacement of specific [3H]NECA binding at hA2AAR expressed in CHO cells; conditions: [3H]-NECA displacement, n = 3–6, read-out: Ki hA2A (95% CI)
T2 construct: expressed in transfected cells; host or cells: CHO cells (membrane preparation)
T2 sequence (P29274 whole entry): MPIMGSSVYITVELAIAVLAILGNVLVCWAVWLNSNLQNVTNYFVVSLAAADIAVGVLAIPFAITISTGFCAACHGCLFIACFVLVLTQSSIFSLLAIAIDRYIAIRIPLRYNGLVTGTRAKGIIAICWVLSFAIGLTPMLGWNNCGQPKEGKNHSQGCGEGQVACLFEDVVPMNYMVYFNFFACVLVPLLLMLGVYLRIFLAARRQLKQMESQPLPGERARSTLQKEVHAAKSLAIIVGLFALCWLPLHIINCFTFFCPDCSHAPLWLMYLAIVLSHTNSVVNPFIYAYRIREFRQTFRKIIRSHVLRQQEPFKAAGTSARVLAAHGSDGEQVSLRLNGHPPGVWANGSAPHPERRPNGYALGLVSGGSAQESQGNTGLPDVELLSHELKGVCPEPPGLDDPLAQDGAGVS
From the text: (§1) The receptor binding affinities of the synthesized benzothiazolylquinoline derivatives (6a-l) are recapitulated in table 2. The binding affinity of the antagonist was estimated by measuring the displacement of selective radioligands which were formerly bound to the receptor expressed (Chinese hamster ovary cells (CHO) for hA1AR, hA2AAR and hA3AR) at the surface of the cell. In this particular assay, the displacement of: (i) specific [3H] CCPA (2-chloro-N(6)-cyclopentyladenosine) binding at hA1AR, (ii) specific [3H] NECA (5'-N-ethylcarboxamidoadenosine) binding at the hA2AAR, and (iii) [3H] HEMADO (2-(1-hexynyl)-N^6-methyladenosine) at the hA3AR were evaluated. […] Ki (dissociation constant) value of the data was calculated using the Cheng and Prusoff equation [49], with geometric means of at least three experiments including 95% confidence intervals. […] Selectivity of this compound at hA3 with respect to hA1 and hA2 has also been reduced to some extent.
(§2) The human A1, A2A, A2B, and A3ARs were transfected in CHO cells based on the previously reported method. The cells were grown adherently and maintained in Dulbecco's modified Eagle's medium with nutrient mixture F12 (DMEM/F12) without nucleosides, containing 10% foetal calf serum, streptomycin (100 µg ml^−1), penicillin (100 µg ml^−1), L-glutamine (2 mM) and Geneticin (G418, 0.2 mg ml^−1) at 37°C in 5% CO2, 95% air. The membrane preparation was initiated by removal of culture medium followed by washing of the cells with phosphate buffered saline and scraped off T75 flasks in ice-cold hypotonic buffer (5 mM Tris–HCl, 2 mM EDTA, pH7.4). Then the cell suspension was homogenized with a polytron, and the homogenate was centrifuged for 10 min at 1000 g. The supernatant was then centrifuged for 30 min at 100 000 g. The membrane pellet was suspended in (i) 50 mM Tris–HCl buffer, pH 7.4, for A1ARs; (ii) 50 mM Tris–HCl, 10 mM MgCl2 buffer, pH 7.4, for A2AARs; and (iii) 50 mM Tris–HCl, 10 mM MgCl2, 1 mM EDTA buffer, pH 7.4, for A3ARs. The cell suspension was incubated with adenosine deaminase for 30 min at 37°C. Then the membrane preparation was used for binding experiments.
(§3) For radioligand binding at A1 ARs 1 nM [3H] CCPA was used, whereas 30 nM of [3H] NECA were used for A2A and 10 nM of [3H]- HEMADO were used for A3 receptors, respectively. Nonspecific binding of [3H]CCPA was determined in the presence of 1 mM theophylline, when [3H]NECA 100 µM R-PIA was used.
(§4) Inhibitory binding constants, Ki, were calculated from the IC50 values according to the Cheng and Prusoff equation Ki = IC50/(1 + [C*]/KD*), where [C*] is the concentration of the radioligand and KD* its dissociation constant. A weighted nonlinear least-squares curve fitting program LIGAND was also used for computer analysis of inhibition experiments. Potency values (IC50) obtained in cyclic AMP assays were calculated by nonlinear regression analysis using the equation for a sigmoid concentration–response curve (Graph Pad Prism, San Diego, CA, USA). All experimental data are expressed as geometric mean with 95% confidence limits in parentheses of three or four independent experiments performed in duplicate.

hA1AR = target: T3, hA1AR (Homo sapiens, UniProt P30542); assay: Displacement of specific [3H]CCPA binding at hA1AR expressed in CHO cells; conditions: [3H]-CCPA displacement, n = 3–6, read-out: Ki hA1 (95% CI)
T3 sequence (P30542 1-326): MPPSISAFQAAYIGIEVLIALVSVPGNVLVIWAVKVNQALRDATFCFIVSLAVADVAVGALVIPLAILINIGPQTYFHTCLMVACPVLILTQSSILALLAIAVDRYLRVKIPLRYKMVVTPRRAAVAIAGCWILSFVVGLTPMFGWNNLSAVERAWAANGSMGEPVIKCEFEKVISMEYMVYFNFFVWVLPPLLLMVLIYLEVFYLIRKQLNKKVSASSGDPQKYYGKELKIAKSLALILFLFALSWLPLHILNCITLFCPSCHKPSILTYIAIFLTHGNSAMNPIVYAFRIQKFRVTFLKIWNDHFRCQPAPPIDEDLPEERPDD
From the text: as §1, §2, §3, §4

hA2BAR = target: T4, hA2BAR (Homo sapiens, UniProt P29275); assay: Inhibition of NECA-stimulated adenylyl cyclase activity in CHO cells expressing hA2BAR; format: biochemical; conditions: read-out: Ki hA2B (95% CI)
T4 construct: expressed in transfected cells; host or cells: CHO cells (crude membrane pellet)
T4 sequence (P29275 1-332): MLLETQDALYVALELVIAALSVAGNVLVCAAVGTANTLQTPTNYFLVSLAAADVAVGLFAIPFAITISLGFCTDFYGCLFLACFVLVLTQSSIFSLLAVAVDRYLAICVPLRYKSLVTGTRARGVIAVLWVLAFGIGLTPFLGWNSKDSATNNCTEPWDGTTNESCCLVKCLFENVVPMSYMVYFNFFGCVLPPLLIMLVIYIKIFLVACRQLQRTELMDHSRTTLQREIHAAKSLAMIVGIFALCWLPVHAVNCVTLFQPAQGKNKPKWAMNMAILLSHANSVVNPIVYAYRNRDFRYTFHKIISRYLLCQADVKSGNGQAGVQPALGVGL
Protocol: as §2
The potency of antagonists at the A2BAR was determined in adenylyl cyclase experiments. For the measurement of adenylyl cyclase activity, only one high speed centrifugation of the homogenate was used. The resulting crude membrane pellet was resuspended in 50 mM Tris–HCl, pH 7.4 and immediately used for the cyclase assay.
as §4

Row | SMILES | Ki (hA3AR) | Ki (hA2AAR) [µM] | Ki (hA1AR) [µM] | Ki (hA2BAR) [µM] | selectivity hA1/A3 (hA3AR) | selectivity hA2A/A3 (hA3AR) | melting point [°C]
1 | c1ccc(-c2nc3ccccc3s2)c(OCCOc2cccc3cccnc23)c1 [Compound 6a] | ~2.6 µM and 2.6 µM | 23.8 | > 100 | > 30 | – | – | –
2 | Brc1cc(Br)c2cccnc2c1OCCOc1ccccc1-c1nc2ccccc2s1 [Compound 6b] | 3.2 µM | 17.2 | > 100 | > 20 | >31.25 | >6.25 | 110 to 112
3 | Clc1ccc(OCCOc2ccccc2-c2nc3ccccc3s2)c2ncccc12 [Compound 6c] | 30.4 µM | 32.8 | 30.8 | > 20 | – | – | –
4 | c1ccc(-c2nc3ccccc3s2)c(OCCCOc2cccc3cccnc23)c1 [Compound 6e] | 3.8 µM | > 20 | > 100 | > 30 | – | – | –
5 | c1ccc(-c2nc3ccccc3s2)c(OCCCCOc2cccc3cccnc23)c1 [Compound 6i] | 25.4 µM | 34.9 | 29.7 | > 20 | – | – | –
6 | Clc1ccc(OCCCCOc2ccccc2-c2nc3ccccc3s2)c2ncccc12 [Compound 6k] | 3.7 µM | > 20 | > 100 | > 10 | – | – | –

Next, values leading:

Row | Ki (hA3AR) | Ki (hA2AAR) [µM] | Ki (hA1AR) [µM] | Ki (hA2BAR) [µM] | selectivity hA1/A3 (hA3AR) | selectivity hA2A/A3 (hA3AR) | melting point [°C] | SMILES
7 | 5.6 µM | > 20 | > 100 | > 20 | >17.85 | >3.57 | 125 to 127 | Clc1cc(I)c(OCCOc2ccccc2-c2nc3ccccc3s2)c2ncccc12 [Compound 6d]
8 | 6.2 µM | > 20 | > 100 | > 30 | – | – | – | Brc1cc(Br)c2cccnc2c1OCCCOc1ccccc1-c1nc2ccccc2s1 [Compound 6f]
9 | 4.2 µM | > 20 | > 100 | > 20 | – | – | – | Clc1ccc(OCCCOc2ccccc2-c2nc3ccccc3s2)c2ncccc12 [Compound 6g]
10 | 6.1 µM | > 20 | > 100 | > 20 | – | – | – | Clc1cc(I)c(OCCCOc2ccccc2-c2nc3ccccc3s2)c2ncccc12 [Compound 6h]
11 | 6.4 µM | > 20 | > 100 | > 20 | – | – | – | Brc1cc(Br)c2cccnc2c1OCCCCOc1ccccc1-c1nc2ccccc2s1 [Compound 6j]
12 | 3.6 µM | > 20 | > 100 | > 30 | – | – | – | Clc1cc(I)c(OCCCCOc2ccccc2-c2nc3ccccc3s2)c2ncccc12 [Compound 6l]
